Blank lines part the entries; values can stand above or below the compound they belong to.
How the values were obtained:
Rat [1] = assay: concentration in plasma after dosing; conditions: 1 h; dosed: Wyeth-14643; 5.0 mg/kg; oral; Male; Sprague-Dawley
Rat [2] = assay: concentration in plasma after dosing; conditions: dosed: Wyeth-14643, 1.0 mg/kg, oral, Male, Sprague-Dawley
Rat [3] = assay: concentration in plasma after dosing; conditions: 3 h; dosed: Bis 2-Chloroethoxy Methane; 40 mg/kg; iv; Male; Harlan Sprague Dawley
Rat [4] = assay: concentration in heart after dosing; conditions: 2 h; dosed: Bis 2-Chloroethoxy Methane; 20 mg/kg; iv; Male; F344
Rat [5] = assay: concentration in liver after dosing; conditions: 2 h; dosed: Bis 2-Chloroethoxy Methane; 20 mg/kg; iv; Male; F344
Rat [6] = assay: concentration in thymus after dosing; conditions: 2 h; dosed: Bis 2-Chloroethoxy Methane; 20 mg/kg; iv; Female; F344
Rat [7] = assay: concentration in plasma after dosing; conditions: dosed: Bis 2-Chloroethoxy Methane, 40 mg/kg, iv, Male, Harlan Sprague Dawley
Rat [8] = assay: concentration in plasma after dosing; conditions: dosed: Bis 2-Chloroethoxy Methane, 40 mg/kg, iv, Male, Harlan Sprague Dawley; remark: listed apart in the source
Rat [9] = assay: concentration in liver after dosing; conditions: 2 h; dosed: Bis 2-Chloroethoxy Methane; 20 mg/kg; iv; Male; F344; remark: listed apart in the source
Rat [10] = assay: concentration in kidney after dosing; conditions: 6 h; dosed: Fluorotelomer alcohol 8+2; 24 mg/kg; oral; Male; Harlan Sprague Dawley
Rat [11] = assay: concentration in kidney after dosing; conditions: 3 h; dosed: Fluorotelomer alcohol 8+2; 80 mg/kg; oral; Female; Harlan Sprague Dawley
Rat [12] = assay: concentration in kidney after dosing; conditions: 3 h; dosed: Fluorotelomer alcohol 8+2; 24 mg/kg; oral; Male; Harlan Sprague Dawley
Rat [13] = assay: concentration in plasma after dosing; conditions: dosed: Fluorotelomer alcohol 8+2, 12 mg/kg, iv, Male, F344
Rat [14] = assay: concentration in liver after dosing; conditions: 12 h; dosed: Fluorotelomer alcohol 8+2; 24 mg/kg; oral; Male; Harlan Sprague Dawley
Rat [15] = assay: concentration in liver after dosing; conditions: 6 h; dosed: Fluorotelomer alcohol 8+2; 80 mg/kg; oral; Female; Harlan Sprague Dawley
Rat [16] = assay: concentration in liver after dosing; conditions: 12 h; dosed: Fluorotelomer alcohol 8+2; 24 mg/kg; oral; Male; Harlan Sprague Dawley; remark: listed apart in the source
Rat [17] = assay: concentration in plasma after dosing; conditions: 5 min; dosed: Di-n-butyl phthalate; 20 mg/kg; iv; Male; Sprague-Dawley
Rat [18] = assay: concentration in plasma after dosing; conditions: 5 h; dosed: Di-n-butyl phthalate; 20 mg/kg; iv; Male; Sprague-Dawley
Rat [19] = assay: concentration in plasma after dosing; conditions: dosed: Perfluorodecanoic acid, 2 mg/kg, iv, Male, F344
Rat [20] = assay: concentration in liver after dosing; conditions: 3360 h; dosed: Perfluorodecanoic acid; 10 mg/kg; oral; Female; Harlan Sprague Dawley
Rat [21] = assay: concentration in liver after dosing; conditions: 3360 h; dosed: Perfluorodecanoic acid; 10 mg/kg; oral; Male; Harlan Sprague Dawley
Rat [22] = assay: concentration in brain after dosing; conditions: 1848 h; dosed: Perfluorodecanoic acid; 10 mg/kg; oral; Male; Harlan Sprague Dawley
Rat [23] = assay: concentration in plasma after dosing; conditions: dosed: Perfluorodecanoic acid, 2 mg/kg, iv, Male, F344; remark: listed apart in the source
Rat [24] = assay: concentration in plasma after dosing; conditions: 6 h; dosed: Primidone; 80 mg/kg; oral; Male; F344
Rat [25] = assay: concentration in plasma after dosing; conditions: 6 h; dosed: Primidone; 30 mg/kg; oral; Male; F344
Rat [26] = assay: concentration in thymus after dosing; conditions: 5.333 h; dosed: Thiodiglycolic Acid; 20 mg/kg; iv; Female; Harlan Sprague Dawley
Rat [27] = assay: concentration in plasma after dosing; conditions: 4 h; dosed: Thiodiglycolic Acid; 20 mg/kg; iv; Male; Harlan Sprague Dawley
Rat [28] = assay: concentration in liver after dosing; conditions: 20 min; dosed: Thiodiglycolic Acid; 20 mg/kg; iv; Female; Harlan Sprague Dawley
Rat [29] = assay: concentration in heart after dosing; conditions: 10 min; dosed: Thiodiglycolic Acid; 20 mg/kg; iv; Female; Harlan Sprague Dawley
Rat [30] = assay: concentration in plasma after dosing; conditions: 2 h; dosed: Thiodiglycolic Acid; 20 mg/kg; iv; Female; Harlan Sprague Dawley
Rat [31] = assay: concentration in thymus after dosing; conditions: 3 h; dosed: Thiodiglycolic Acid; 20 mg/kg; iv; Female; Harlan Sprague Dawley
Rat [32] = assay: concentration in heart after dosing; conditions: 4 h; dosed: Thiodiglycolic Acid; 20 mg/kg; iv; Female; Harlan Sprague Dawley
Rat [33] = assay: concentration in thymus after dosing; conditions: 10 min; dosed: Thiodiglycolic Acid; 20 mg/kg; iv; Female; Harlan Sprague Dawley
Rat [34] = assay: concentration in heart after dosing; conditions: 10 min; dosed: Thiodiglycolic Acid; 20 mg/kg; iv; Male; F344
Rat [35] = assay: concentration in plasma after dosing; conditions: 10 min; dosed: Thiodiglycolic Acid; 20 mg/kg; iv; Female; Harlan Sprague Dawley
Rat [36] = assay: concentration in plasma after dosing; conditions: 40 min; dosed: Thiodiglycolic Acid; 20 mg/kg; iv; Male; Harlan Sprague Dawley
Rat [37] = assay: concentration in heart after dosing; conditions: 20 min; dosed: Thiodiglycolic Acid; 20 mg/kg; iv; Female; Harlan Sprague Dawley
Rat [38] = assay: concentration in plasma after dosing; conditions: dosed: dichloroacetic acid, 40 mg/kg, oral, Female, Harlan Sprague Dawley
Rat [39] = assay: concentration in plasma after dosing; conditions: dosed: dichloroacetic acid, 40 mg/kg, oral, Female, Harlan Sprague Dawley; remark: listed apart in the source
Rat [40] = assay: concentration in plasma after dosing; conditions: 20 min; dosed: dichloroacetic acid; 10 mg/kg; iv; Male; F344

concentration in plasma (Rat [1]): 4730 ng/mL | concentration in plasma (Rat [2]; 2 h): 709 ng/mL | concentration in plasma (Rat [2]; 8 h): 189 ng/mL
SMILES: Cc1cccc(Nc2cc(Cl)nc(SCC(=O)O)n2)c1C

SMILES: ClCCOCOCCCl [Bis 2-Chloroethoxy Methane]
concentration in plasma (Rat [3]): 287 ng/mL | concentration in heart (Rat [4]): 119 ng/g | concentration in liver (Rat [5]): 564 ng/g | concentration in thymus (Rat [6]): 264 ng/g | concentration in plasma (Rat [7]; 10 min): 22600 ng/mL | concentration in plasma (Rat [7]; 5.333 h): 67 ng/mL | concentration in plasma (Rat [8]; 20 min): 8380 ng/mL | concentration in plasma (Rat [8]; 6.667 h): 25.4 ng/mL | concentration in liver (Rat [9]): 135 ng/g

concentration in kidney (Rat [10]): 271 ng/g | concentration in kidney (Rat [11]): 4360 ng/g | concentration in kidney (Rat [12]): 631 ng/g | concentration in plasma (Rat [13]; 0.25 h): 1710 ng/mL | concentration in plasma (Rat [13]; 24 h): 3.59 ng/mL | concentration in liver (Rat [14]): 968 ng/g | concentration in liver (Rat [15]): 2020 ng/g | concentration in liver (Rat [16]): 719 ng/g
SMILES: OCCC(F)(F)C(F)(F)C(F)(F)C(F)(F)C(F)(F)C(F)(F)C(F)(F)C(F)(F)F [Fluorotelomer alcohol 8+2]

SMILES: CCCCOC(=O)c1ccccc1C(=O)O [Mono-n-butyl phthalate]
concentration in plasma (Rat [17]): 22800 ng/mL | concentration in plasma (Rat [18]): 600 ng/mL

SMILES: O=C(O)C(F)(F)C(F)(F)C(F)(F)C(F)(F)C(F)(F)C(F)(F)C(F)(F)C(F)(F)C(F)(F)F [Perfluorodecanoic acid]
concentration in plasma (Rat [19]; 6 h): 6240 ng/mL | concentration in plasma (Rat [19]; 864 h): 2140 ng/mL | concentration in liver (Rat [20]): 6380 ng/g | concentration in liver (Rat [21]): 6930 ng/g | concentration in brain (Rat [22]): 531 ng/g | concentration in plasma (Rat [23]; 5 min): 7460 ng/mL | concentration in plasma (Rat [23]; 192 h): 3420 ng/mL | concentration in plasma (Rat [23]; 2520 h): 283 ng/mL

SMILES: CCC1(c2ccccc2)C(=O)NC(=O)NC1=O [Phenobarbital]
concentration in plasma (Rat [24]): 5320 ng/mL | concentration in plasma (Rat [25]): 3110 ng/mL

SMILES: O=C(O)CSCC(=O)O [Thiodiglycolic Acid]
concentration in thymus (Rat [26]): 1080 ng/g | concentration in plasma (Rat [27]): 615 ng/mL | concentration in liver (Rat [28]): 47100 ng/g | concentration in heart (Rat [29]): 9540 ng/g | concentration in plasma (Rat [30]): 1560 ng/mL | concentration in thymus (Rat [31]): 1030 ng/g | concentration in heart (Rat [32]): 348 ng/g | concentration in thymus (Rat [33]): 7780 ng/g | concentration in heart (Rat [34]): 8210 ng/g | concentration in plasma (Rat [35]): 38100 ng/mL | concentration in plasma (Rat [36]): 2000 ng/mL | concentration in heart (Rat [37]): 5330 ng/g

SMILES: O=C(O)C(Cl)Cl [dichloroacetic acid]
concentration in plasma (Rat [38]; 2 min): 704 ng/mL | concentration in plasma (Rat [38]; 1 h): 7020 ng/mL | concentration in plasma (Rat [39]; 2 min): 787 ng/mL | concentration in plasma (Rat [39]; 1 h): 6320 ng/mL | concentration in plasma (Rat [40]): 2260 ng/mL
